The values below come from US20090118274A1, “MONOCYCLIC AMINOPROPYL TETRAHYDRO-PYRAZOLO-PYRIDINE MODULATORS OF CATHEPSIN S” (priority 2007, published 2009).

Structures are written as SMILES.

The target of the first assay is T1, Recombinant human cathepsin S (CatS) (Homo sapiens, UniProt P25774).
T1 construct: made in house
T1 sequence (P25774 115-331): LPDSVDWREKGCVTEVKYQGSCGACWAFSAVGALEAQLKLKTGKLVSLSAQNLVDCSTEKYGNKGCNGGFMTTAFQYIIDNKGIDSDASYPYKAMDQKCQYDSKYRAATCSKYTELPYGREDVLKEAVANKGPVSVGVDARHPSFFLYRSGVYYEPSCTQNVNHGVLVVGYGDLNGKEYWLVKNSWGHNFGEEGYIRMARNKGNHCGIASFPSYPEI
In words: Recombinant human cathepsin S (CatS) fluorogenic substrate inhibition assay.
Details: not given
In kind it is biochemical. The procedure:
Recombinant human cathepsin S (CatS) was expressed in the baculovirus system and purified in one step with a thiopropyl-sepharose column. […] The assay is run in 150 mM sodium acetate pH 5.0 containing 1.5 mM DTT and 150 mM NaCl. […] Measurements are taken every min for 20 min. The rate is calculated from the slope of the increase in fluorescence and the percent inhibition is calculated from this.
As to `CC(=O)NCC1CCN(CC(O)Cn2nc(-c3ccc(C(F)(F)F)c(CNC(=O)C=C(C)C)c3)c3c2CCN(S(C)(=O)=O)C3)CC1` (stereo not shown) [Example 267, 3-Methyl-but-2-enoic acid 5-(1-{3-[4-(acetylamino-methyl)-piperidin-1-yl]-2-hydroxy-propyl}-5-methanesulfonyl-4,5,6,7-tetrahydro-1H-pyrazolo[4,3-c]pyridin-3-yl)-2-trifluoromethyl-benzylamide], the 50% inhibitory concentration (IC50) – broadly, the point on the concentration scale where inhibition reaches its midpoint – worked out at 80 nM.

The assay is the same for the next values; noted with them: average of results obtained; substrate Z-Valine-Valine-Arginine-AMC 10 μM, pH 5.0; read-out: CatS IC50.
On to `CS(=O)(=O)N1CCc2c(c(-c3ccc(Cl)c(CCC(=O)Nc4ccccc4)c3)nn2CCCN2CCOCC2)C1` [Example 292, 3-{2-Chloro-5-[5-methanesulfonyl-1-(3-morpholin-4-yl-propyl)-4,5,6,7-tetrahydro-1H-pyrazolo[4,3-c]pyridin-3-yl]-phenyl}-N-phenyl-propionamide], for which the concentration for half-maximal inhibition (IC50) came to 2550 nM.

Regarding `CS(=O)(=O)N1CCc2c(c(-c3ccc(C(F)(F)F)c(CNC(=O)c4ccc(F)cc4)c3)nn2CCCN2CCC3(CCNC3=O)CC2)C1` [Example 41, 4-Fluoro-N-(5-{5-methanesulfonyl-1-[3-(1-oxo-2,8-diaza-spiro[4.5]dec-8-yl)-propyl]-4,5,6,7-tetrahydro-1H-pyrazolo[4,3-c]pyridin-3-yl}-2-trifluoromethyl-benzyl)-benzamide], the IC50 came out at 40 nM.

As for `CS(=O)(=O)N1CCc2c(c(-c3ccc(C(F)(F)F)c(CNC(=O)c4cccc(C#N)c4)c3)nn2CC(O)CN2CCCC2)C1` (stereo not shown) [Example 159, 3-Cyano-N-{5-[1-(2-hydroxy-3-pyrrolidin-1-yl-propyl)-5-methanesulfonyl-4,5,6,7-tetrahydro-1H-pyrazolo[4,3-c]pyridin-3-yl]-2-trifluoromethyl-benzyl}-benzamide], the concentration for half-maximal inhibition (IC50) was determined as 290 nM.

With `CC(C)=CC(=O)NCc1cc(-c2nn(CC(O)CN3CCC(C(C)(C)C)CC3)c3c2CN(S(C)(=O)=O)CC3)ccc1C(F)(F)F` (stereo not shown) [Example 273, 3-Methyl-but-2-enoic acid 5-{1-[3-(4-tert-butyl-piperidin-1-yl)-2-hydroxy-propyl]-5-methanesulfonyl-4,5,6,7-tetrahydro-1H-pyrazolo[4,3-c]pyridin-3-yl}-2-trifluoromethyl-benzylamide], the concentration for half-maximal inhibition (IC50) is 30 nM.

As for `CC(C)CC(=O)NCc1cc(-c2nn(CC(O)CN3CCC(C(C)(C)C)CC3)c3c2CN(S(C)(=O)=O)CC3)ccc1C(F)(F)F` (stereo not shown) [Example 289, N-(5-{1-[3-(4-tert-Butyl-piperidin-1-yl)-2-hydroxy-propyl]-5-methanesulfonyl-4,5,6,7-tetrahydro-1H-pyrazolo[4,3-c]pyridin-3-yl}-2-trifluoromethyl-benzyl)-3-methyl-butyramide], the IC50 worked out at 90 nM.

As for `CC(=O)NC1CCN(CC(O)Cn2nc(-c3ccc(C(F)(F)F)c(CNC(=O)CC(C)C)c3)c3c2CCN(S(C)(=O)=O)C3)C1` (stereo not shown) [Example 278, N-(5-{1-[3-(3-Acetylamino-pyrrolidin-1-yl)-2-hydroxy-propyl]-5-methanesulfonyl-4,5,6,7-tetrahydro-1H-pyrazolo[4,3-c]pyridin-3-yl}-2-trifluoromethyl-benzyl)-3-methyl-butyramide], the 50% inhibitory concentration (IC50) came out at 380 nM.

As to `CS(=O)(=O)N1CCc2c(c(-c3ccc(C(F)(F)F)c(CNC(=O)c4ccc(F)c(F)c4)c3)nn2CC(O)CN2CCCC2)C1` (stereo not shown) [Example 60, 3,4-Difluoro-N-{5-[1-(2-hydroxy-3-pyrrolidin-1-yl-propyl)-5-methanesulfonyl-4,5,6,7-tetrahydro-1H-pyrazolo[4,3-c]pyridin-3-yl]-2-trifluoromethyl-benzyl}-benzamide], the 50% inhibitory concentration (IC50) worked out at 210 nM.

On to `CS(=O)(=O)N1CCc2c(c(-c3ccc(C(F)(F)F)c(CNC(=O)c4ccc(F)cc4)c3)nn2CCCN2CCC(O)C2)C1` (stereo not shown) [Example 40, 4-Fluoro-N-(5-{1-[3-(3-hydroxy-pyrrolidin-1-yl)-propyl]-5-methanesulfonyl-4,5,6,7-tetrahydro-1H-pyrazolo[4,3-c]pyridin-3-yl}-2-trifluoromethyl-benzyl)-benzamide], for which the IC50 is 90 nM.

`CS(=O)(=O)N1CCc2c(c(-c3ccc(C(F)(F)F)c(CNC(=O)c4ccccc4O)c3)nn2CCCN2CCC3(CCNC3=O)CC2)C1` [Example 150, 2-Hydroxy-N-(5-{5-methanesulfonyl-1-[3-(1-oxo-2,8-diaza-spiro[4.5]dec-8-yl)-propyl]-4,5,6,7-tetrahydro-1H-pyrazolo[4,3-c]pyridin-3-yl}-2-trifluoromethyl-benzyl)-benzamide]: the half-maximal inhibitory concentration (IC50) is 240 nM.

Take `CN(C)C1CCN(CC(O)Cn2nc(-c3ccc(Cl)c(CNC(=O)c4ccc(F)cc4)c3)c3c2CCN(S(C)(=O)=O)C3)CC1` (stereo not shown) [Example 85, N-(2-Chloro-5-{1-[3-(4-dimethylamino-piperidin-1-yl)-2-hydroxy-propyl]-5-methanesulfonyl-4,5,6,7-tetrahydro-1H-pyrazolo[4,3-c]pyridin-3-yl}-benzyl)-4-fluoro-benzamide]: the IC50 was 450 nM.

Regarding `CS(=O)(=O)N1CCc2c(c(-c3ccc(Cl)c(CNC(=O)c4ccccc4)c3)nn2CC(O)CN2CCCCCC2)C1` (stereo not shown) [Example 170, N-{5-[1-(3-Azepan-1-yl-2-hydroxy-propyl)-5-methanesulfonyl-4,5,6,7-tetrahydro-1H-pyrazolo[4,3-c]pyridin-3-yl]-2-chloro-benzyl}-benzamide], the IC50 was 560 nM.

As for `CS(=O)(=O)N1CCc2c(c(-c3ccc(C(F)(F)F)c(CNC(=O)c4ccc(F)cc4)c3)nn2CC(O)CN2CNC(=O)C2)C1` (stereo not shown) [Example 171, 4-Fluoro-N-(5-{1-[2-hydroxy-3-(4-oxo-imidazolidin-1-yl)-propyl]-5-methanesulfonyl-4,5,6,7-tetrahydro-1H-pyrazolo[4,3-c]pyridin-3-yl}-2-trifluoromethyl-benzyl)-benzamide], the half-maximal inhibitory concentration (IC50) is 600 nM.

In the case of `CS(=O)(=O)N1CCc2c(c(-c3ccc(C(F)(F)F)c(CNC(=O)c4ccc(F)cc4)c3)nn2CC(O)CN2CCS(=O)(=O)CC2)C1` (stereo not shown) [Example 169, N-(5-{1-[3-(1,1-Dioxo-1λ^6-thiomorpholin-4-yl)-2-hydroxy-propyl]-5-methanesulfonyl-4,5,6,7-tetrahydro-1H-pyrazolo[4,3-c]pyridin-3-yl}-2-trifluoromethyl-benzyl)-4-fluoro-benzamide], the IC50 worked out at 550 nM.

Take `CN(C)C1CCN(CC(O)Cn2nc(-c3ccc(C(F)(F)F)c(CNC(=O)c4ccc(F)cc4)c3)c3c2CCN(S(C)(=O)=O)C3)C1` (stereo not shown) [Example 26, N-(5-{1-[3-(3-Dimethylamino-pyrrolidin-1-yl)-2-hydroxy-propyl]-5-methanesulfonyl-4,5,6,7-tetrahydro-1H-pyrazolo[4,3-c]pyridin-3-yl}-2-trifluoromethyl-benzyl)-4-fluoro-benzamide]: the IC50 worked out at 360 nM.

`CS(=O)(=O)N1CCc2c(c(-c3ccc(C(F)(F)F)c(CNC(=O)c4ccc(Cl)cc4)c3)nn2CC(O)CN2CCCC2)C1` (stereo not shown) [Example 224, 4-Chloro-N-{5-[1-(2-hydroxy-3-pyrrolidin-1-yl-propyl)-5-methanesulfonyl-4,5,6,7-tetrahydro-1H-pyrazolo[4,3-c]pyridin-3-yl]-2-trifluoromethyl-benzyl}-benzamide]: the IC50 amounted to 730 nM.

`CNC(=O)CCc1cc(-c2nn(CCCN3CCOCC3)c3c2CN(S(C)(=O)=O)CC3)ccc1Cl` [Example 294, 3-{2-Chloro-5-[5-methanesulfonyl-1-(3-morpholin-4-yl-propyl)-4,5,6,7-tetrahydro-1H-pyrazolo[4,3-c]pyridin-3-yl]-phenyl}-N-methyl-propionamide]: the 50% inhibitory concentration (IC50) turned out to be 16500 nM.

On to `CCOC(=O)NC1CCN(CC(O)Cn2nc(-c3ccc(C(F)(F)F)c(CNC(=O)CC(C)C)c3)c3c2CCN(S(C)(=O)=O)C3)CC1` (stereo not shown) [Example 155, {1-[2-Hydroxy-3-(5-methanesulfonyl-3-{3-[(3-methyl-butyrylamino)-methyl]-4-trifluoromethyl-phenyl}-4,5,6,7-tetrahydro-pyrazolo[4,3-c]pyridin-1-yl)-propyl]-piperidin-4-yl}-carbamic acid ethyl ester], for which the IC50 was 50 nM.

Turning to `CC(C)=CC(=O)NCc1cc(-c2nn(CC(O)CN3CCOCC3)c3c2CN(S(C)(=O)=O)CC3)ccc1C(F)(F)F` (stereo not shown) [Example 153, 3-Methyl-but-2-enoic acid 5-[1-(2-hydroxy-3-morpholin-4-yl-propyl)-5-methanesulfonyl-4,5,6,7-tetrahydro-1H-pyrazolo[4,3-c]pyridin-3-yl]-2-trifluoromethyl-benzylamide], the 50% inhibitory concentration (IC50) was determined as 140 nM.

Regarding `CS(=O)(=O)N1CCc2c(c(-c3ccc(Cl)c(CNC(=O)c4ccc(F)cc4)c3)nn2CC(O)CN2CCC(F)(F)CC2)C1` (stereo not shown) [Example 10, N-(2-Chloro-5-{1-[3-(4,4-difluoro-piperidin-1-yl)-2-hydroxy-propyl]-5-methanesulfonyl-4,5,6,7-tetrahydro-1H-pyrazolo[4,3-c]pyridin-3-yl}-benzyl)-4-fluoro-benzamide], the 50% inhibitory concentration (IC50) worked out at 90 nM.

With `CC(C)CC(=O)NCc1cc(-c2nn(CC(O)CN3CCC(NC(=O)C(F)(F)F)C3)c3c2CN(S(C)(=O)=O)CC3)ccc1C(F)(F)F` (stereo not shown) [Example 280, N-[5-(1-{2-Hydroxy-3-[3-(2,2,2-trifluoro-acetylamino)-pyrrolidin-1-yl]-propyl}-5-methanesulfonyl-4,5,6,7-tetrahydro-1H-pyrazolo[4,3-c]pyridin-3-yl)-2-trifluoromethyl-benzyl]-3-methyl-butyramide], the half-inhibitory concentration (IC50) came to 360 nM.

For the molecule `CS(=O)(=O)N1CCc2c(c(-c3ccc(C(F)(F)F)c(CNC(=O)c4ccc(F)cc4)c3)nn2CC(O)CN2CCC(O)CC2)C1` (stereo not shown) [Example 25, 4-Fluoro-N-(5-{1-[2-hydroxy-3-(4-hydroxy-piperidin-1-yl)-propyl]-5-methanesulfonyl-4,5,6,7-tetrahydro-1H-pyrazolo[4,3-c]pyridin-3-yl}-2-trifluoromethyl-benzyl)-benzamide], the 50% inhibitory concentration (IC50) was 170 nM.
